# Measured values from patent US5436252A, “5-aryl-3H-1,2,4-triazol-3-ones and their use in the treatment of neurodegenerative disorders” (Merrell Dow Pharmaceuticals Inc., priority 1990, dated 1995).
# Like-named read-outs stand apart in the source and are kept apart here.
# Tests used:
# [1] = Antagonism of Quinolinic Acid Induced Seizures (clonic-tonic seizures after icv quinolinic acid); type: in vivo, mice; conditions: for responders at 64 mg/kg / ED50: Mus musculus; for responders at 64 mg/kg: 64 mg/Kg IP, animals protected/tested, quinolinic acid 7.7 μg icv, read-out: Mice Protected 64 mg/Kg IP
# [2] = Hippocampal neurodegeneration after carotid artery occlusion (CA1 damage score); type: in vivo, Male mongolian gerbils
# Description: Male mongolian gerbils (Tumblebrook Farms) weighing 45 to 60 gms were used for the experiments measuring hippocampal neurodegeneration after carotid artery occlusion. The gerbils were housed in small groups and allowed ad lib access to food and water prior to surgery. Following administration of drug, the gerbils were anesthetized with halothane (3.5%) and prepared for surgery.
# An incision was made in the midline region of the neck and both carotid arteries were exposed and isolated from surrounding tissue. In sham operated animals the wounds were then closed and the animals were allowed to recover. In the hypoxic group the isolated carotid arteries were occluded for 5 minutes with 7 mm Mayfield aneurysm clips. Loss of blood flow to the cortex was confirmed by observation with an opthalmoscope of the blanching of the radial arteries in the retina of the ipsilateral eye. After 5 minutes the clips were removed and the gerbils were placed in their home cages and allowed to recover. After 7 days the gerbils were sacrificed by an overdose of chloral hydrate and perfused intracardially with 10 ml of 1% […] followed by 15 ml of 10% buffered formalin. […] Damage to the CA1 region was assessed by 3 observers who were blind to the previous treatment of the gerbil. This damage was assessed according to the scale below. […]
# [3] = gerbils; background; cited from earlier work
# [4] = mice; background; cited from earlier work
# [5] = administration to rodents; background; cited from earlier work
# [6] = 0.5 h, IP, 30', read-out: ED50 IP
structure (smiles),measurement,setting,value
COc1ccc(-c2nn(C)c(=O)n2C)cc1OC1CCCC1,responders at 64 mg/kg,[1],60%
"Cn1nc(-c2ccccc2Cl)n(C)c1=O [2-ClC6 H4, CH3, CH3]",responders at 64 mg/kg,[1],60%
"Cn1c(-c2ccccc2Cl)n[nH]c1=O [2-ClC6 H4, H, CH3, 5-(2-chlorophenyl)-2,4-dihydro-4-methyl-3H-1,2,4-triazol-3-one]",ED50,[1]; [6],64.9 mg/kg
same,responders at 64 mg/kg,[1],60%
same,ED50,"[1]; IP, 2 hr, read-out: ED50 IP",> 64 mg/kg
"CCn1nc(-c2cccs2)n(C)c1=O [2-Thienyl, C2 H5, CH3, 5-(2-thienyl)-2,4-dihydro-2-ethyl-4-methyl-3H-1,2,4-triazol-3-one]",ED50,"[1]; IP, range, time not given, printed near the Mice Protected column, read-out: ED50 IP",8 to 64 mg/kg
"Cn1c(-c2ccc(Cl)c(Cl)c2)n[nH]c1=O [3,4-Cl2 C6 H3, H, CH3, 5-(3,4-dichlorophenyl)-2,4-dihydro-4-methyl-3H-1,2,4-triazol-3-one]",Mice Protected,"[1]; @ 32 mg/Kg IP, (60')",5/10
same,ED50,[1]; [6],< 8 mg/kg
same,ED50,"[1]; PO, time not given, read-out: ED50 PO",> 16 mg/kg
"COc1ccc(-c2n[nH]c(=O)n2C)cc1OC1CCCC1 [3-(cyclo-C5 H9 O)--4-CH3 OC6 H3, H, CH3]",responders at 64 mg/kg,[1],20%
"CCCCOc1cc(-c2nn(C)c(=O)n2C)ccc1OC [3-(n-C4 H9 O)--4-CH3 OC6 H3, CH3, CH3]",responders at 64 mg/kg,[1],60%
"CCCCOc1cc(-c2n[nH]c(=O)n2C)ccc1OC [3-(n-C4 H9 O)--4-CH3 OC6 H3, H, CH3, 5-[3-(n-butoxy)-4-methoxyphenyl]-2,4-dihydro-4-methyl-3H-1,2,4-triazol-3-one]",responders at 64 mg/kg,[1],70%
"CCn1c(-c2ccc(Cl)cc2)nn(C)c1=O [4-ClC6 H4, CH3, C2 H5, 5-(4-Chlorophenyl)-2,4-dihydro-4-ethyl-2-methyl-3H-1,2,4-triazol-3-one]",ED50,[1]; [6],25.9 mg/kg
same,ED50,"[1]; 0.5 h, PO, 30', read-out: ED50 PO",29.9 mg/kg
same,ED50,"[1]; 1 h, IP, 60', read-out: ED50 IP",17.2 mg/kg
same,ED50,"[1]; IP, 2 hr, read-out: ED50 IP",39.2 mg/kg
same,ED50,"[1]; PO, 4 hr, read-out: ED50 PO",52.3 mg/kg
same,ED50,"[1]; PO, 24 hr, read-out: ED50 PO",> 128 mg/kg
same,reduction of damage,[2]; 40 mg/kg i.p.,66%
"Cn1nc(-c2ccc(Cl)cc2)n(C)c1=O [4-ClC6 H4, CH3, CH3, 5-(4-chlorophenyl)-2,4-dihydro-2,4-dimethyl-3H-1,2,4-triazol-3-one]",responders at 64 mg/kg,[1],80%
"CCn1c(-c2ccc(Cl)cc2)n[nH]c1=O [4-ClC6 H4, H, C2 H5, 5-(4-Chlorophenyl)2,4-dihydro-4-ethyl-3H-1,2,4-triazol-3-one]",ED50,[1]; [6],51 mg/kg
"Cn1c(-c2ccc(Cl)cc2)n[nH]c1=O [4-ClC6 H4, H, CH3]",responders at 64 mg/kg,[1],60%
"Cn1c(-c2ccncc2)n[nH]c1=O [4-Pyridyl, H, CH3, 2,4-Dihydro-4-methyl-5-(4-pyridinyl)-3H-1,2,4-triazol-3-one]",responders at 64 mg/kg,[1],30%
"CCn1nc(-c2ccccc2)n(C)c1=O [C6 H5, C2 H5, CH3]",responders at 64 mg/kg,[1],50%
"Cn1nc(-c2ccccc2)n(C)c1=O [C6 H5, CH3, CH3]",responders at 64 mg/kg,[1],50%
"Cn1c(-c2ccccc2)n[nH]c1=O [C6 H5, H, CH3]",responders at 64 mg/kg,[1],50%
"C[C@]12N[C@H](Cc3ccccc31)c1ccccc12 [MK-801, (S)-10,11-dihydro-5-methyl-5H-dibenzo(a,d)cyclohepten-5,10-imine]",antagonism of hippocampal neurodegeneration (in words),[3],antagonize hippocampal neurodegeneration after carotid artery occlusion in gerbils
same,reduction of apparent damage,"[2]; 5 mg/kg, 30 minutes prior to ligation",28%
same,antagonism of quinolinic acid seizures (in words),[4],antagonize the seizures induced in mice by quinolinic acid
C=C(C)[C@H]1CN[C@H](C(=O)O)[C@H]1CC(=O)O [kainic acid],neuronal degeneration (in words),[5],shown to cause neuronal degeneration
"O=C(O)c1cccnc1C(=O)O [quinolinic acid, reference compound]",clonic-tonic seizures caused in otherwise untreated mice,[1]; 7.7 μg in 5 μl saline icv,90-100%
same,neuronal degeneration (in words),[5],shown to cause neuronal degeneration
N[C@@H](Cn1oc(=O)[nH]c1=O)C(=O)O [quisqualic acid],neuronal degeneration (in words),[5],shown to cause neuronal degeneration
